Measurements reported in US10238658B2, “1-pyrazolyl-3-(4-((2-anilinopyrimidin-4-yl) oxy) napththalen-1-yl) ureas as p38 MAP kinase inhibitors” (Respivert Limited, priority 2011, dated 2019).

Assays:
A/J mice = assay: Cigarette smoke model: macrophage and neutrophil accumulation in BALF; type: in vivo, mouse; details: for % inhibition Macrophage in BALF / % inhibition Neutrophil in BALF: tobacco smoke
Procedure: A/J mice (males, 5 weeks old) were exposed to cigarette smoke (4% cigarette smoke, diluted with air) for 30 min/day for 11 days using a Tobacco Smoke Inhalation Experiment System for small animals (Model SIS-CS; Sibata Scientific Technology, Tokyo, Japan). […] At 12 hr after the last dosing, each of the animals was anesthetized, the trachea cannulated and bronchoalveolar lavage fluid (BALF) was collected. The numbers of alveolar macrophages and neutrophils were determined by FACS analysis (EPICS® ALTRA II, Beckman Coulter, Inc., Fullerton, Calif., USA) using anti-mouse MOMA2 antibody (macrophage) or anti-mouse 7/4 antibody (neutrophil). BALF was centrifuged and the supernatant was collected. The level of keratinocyte chemoattractant (KC; CXCL1) in BALF was quantitated using a Quentikine® mouse KC ELISA kit (R&D systems, Inc., Minneapolis, Minn., USA).

Balb/c mice = assay: LPS-induced neutrophil accumulation in mice; type: in vivo, mouse
Procedure: […] At T=0, mice were placed into an exposure chamber and exposed to LPS (7.0 mL, 0.5 mg/mL solution in PBS) for 30 min). After a further 8 hr the animals were anesthetized, their tracheas cannulated and BALF extracted by infusing and then withdrawing from their lungs 1.0 mL of PBS via the tracheal catheter. Total and differential white cell counts in the BALF samples were measured using a Neubaur haemocytometer. Cytospin smears of the BALF samples were prepared by centrifugation at 200 rpm for 5 min at RT and stained using a DiffQuik stain system (Dade Behring). Cells were counted using oil immersion microscopy. Data for neutrophil numbers in BAL are shown as mean ±S.E.M. (standard error of the mean). The percentage inhibition of neutrophil accumulation was calculated for each treatment relative to vehicle treatment,

TNFα = assay: LPS-stimulated TNFα production in sputum macrophages from COPD; type: cell-based; details: Homo sapiens, Macrophage
Procedure: (§1) Patients with COPD were inhaled with a nebulised solution of 3% (w/v) hypertonic saline using an ultrasonic nebuliser (Devilbiss, Carthage, Mo.) with tidal breathing for 5 min. This procedure was repeated a maximum of three times until enough sputum was obtained. The sputum samples were homogenized and mixed vigorously using a vortex mixer in 0.02% v/v dithiothreitol (DTT) solution. The samples were re-suspended in PBS (40 mL) followed by centrifugation at 1500 rpm at 4° C. for 10 min to obtain sputum cell pellets. The pellets were washed twice with PBS (40 mL). The sputum cells were then re-suspended in macrophage serum-free medium (macrophage-SFM, Life technologies, Paisley, UK; to achieve 2×10^6/well in a 24 well plate) containing 20 U/mL penicillin, 0.02 mg/mL streptomycin and 5 μg/mL amphotericin B and seeded on high bound 96-well plate, followed by incubation for 2 hr at 37° C. and at 5% CO2 to allow the macrophages to attach to the bottom of the plate. The cells on the plate were washed with fresh macrophage-SFM (200 μL/well) to remove neutrophils and other contaminated cells. The adherent cells (mainly sputum macrophages) on the plate were used for further analysis. Sputum induction and isolation were conducted in Quintiles Drug Research Unit at Guys Hospital and ethics approval and written informed consent was obtained by Quintiles.
(§2) Where appropriate, 1 μL of a solution containing either the test compound or reference article at the stated concentrations or alternatively 1 μL of DMSO as the vehicle control was added to each well (200 μL in media) and the cells were incubated for 2 hr. […] After washing with 200 uL wash buffer per well, the beads were resuspended in sheath fluid (150 μL) and analyzed immediately. The level of each analyte in the supernatant was calculated using Xcel Fit software with a 4 or 5-parameter equation using each standard curve. The inhibitions of each cytokine production were calculated at each concentration by comparison with vehicle control. The IC50 values were determined from concentration-inhibition curves using XL-Fit (idbs, Guildford, UK)

CXCL1 (KC) = assay: Cigarette smoke model: CXCL1 (KC) in BALF; type: in vivo, mouse; details: mice
Procedure: A/J mice (males, 5 weeks old) were exposed to cigarette smoke (4% cigarette smoke, diluted with air) for 30 min/day for 11 days using a Tobacco Smoke Inhalation Experiment System for small animals (Model SIS-CS; Sibata Scientific Technology, Tokyo, Japan). Test substances were administered intra-nasally (35 μL of solution in 50% DMSO/PBS) once daily for 3 days after the final cigarette smoke exposure. At 12 hr after the last dosing, each of the animals was anesthetized, the trachea cannulated and bronchoalveolar lavage fluid (BALF) was collected. The numbers of alveolar macrophages and neutrophils were determined by FACS analysis (EPICS® ALTRA II, Beckman Coulter, Inc., Fullerton, Calif., USA) using anti-mouse MOMA2 antibody (macrophage) or anti-mouse 7/4 antibody (neutrophil). BALF was centrifuged and the supernatant was collected. The level of keratinocyte chemoattractant (KC; CXCL1) in BALF was quantitated using a Quentikine® mouse KC ELISA kit (R&D systems, Inc., Minneapolis, Minn., USA).

IL-8 [1] = assay: LPS-stimulated IL-8 production in sputum macrophages from COPD; type: cell-based; details: Homo sapiens, Macrophage
Procedure: as §1, §2

IL-8 [2] = assay: LPS-induced IL-8 release in d-U937 cells; type: cell-based; details: Homo sapiens, dU937, dU937 cells
Summary of the method: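 U937 cells differentiated with PMA (100 ng/mL, 48–72 hr) were pre-incubated with compound for 2 hr, then stimulated with E. coli O111:B4 LPS (0.1 μg/mL) for 4 hr. Supernatant cytokine measured by sandwich ELISA; inhibition vs vehicle control at each concentration, REC50 taken from the concentration-response curve.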

Cc1ccc(-n2nc(C(C)(C)C)cc2NC(=O)Nc2ccc(Oc3ccnc(Nc4ccccc4)n3)c3ccccc23)cc1 [Example 1, 1-(3-(tert-Butyl)-1-(p-tolyl)-1H-pyrazol-5-yl)-3-(4-(2-(phenylamino)pyrimidin-4-yloxy)naphthalen-1-yl)urea]
macrophage accumulation in BALF induced by cigarette smoke, effect in words (A/J mice; mice): dose-dependent inhibition | neutrophil accumulation in BALF induced by cigarette smoke, effect in words (A/J mice; mice): dose-dependent inhibition | % inhibition Macrophage in BALF (A/J mice; 0.32 μg/mL intra-nasal): 11% | % inhibition Neutrophil in BALF (A/J mice; 0.32 μg/mL intra-nasal): 12% | % inhibition Macrophage in BALF (A/J mice; 1.6 μg/mL intra-nasal): 28% | % inhibition Neutrophil in BALF (A/J mice; 1.6 μg/mL intra-nasal): 29% | % inhibition Macrophage in BALF (A/J mice; 8.0 μg/mL intra-nasal): 43% | % inhibition Neutrophil in BALF (A/J mice; 8.0 μg/mL intra-nasal): 41% | % inhibition Macrophage in BALF (A/J mice; 40 μg/mL intra-nasal): 64% | % inhibition Neutrophil in BALF (A/J mice; 40 μg/mL intra-nasal): 52% | % inhibition of neutrophil numbers in BALF (Balb/c mice; 0.05 mg/mL intra tracheal, pre-dose 2 hr): 18% | % inhibition of neutrophil numbers in BALF (Balb/c mice; 0.2 mg/mL intra tracheal, pre-dose 2 hr): 48% | % inhibition of neutrophil numbers in BALF (Balb/c mice; 1.0 mg/mL intra tracheal, pre-dose 2 hr): 77% | % inhibition of neutrophil numbers in BALF (Balb/c mice; 1.0 mg/mL intra tracheal, pre-dose 8 hr): 48% | % inhibition of neutrophil numbers in BALF (Balb/c mice; 1.0 mg/mL intra tracheal, pre-dose 12 hr): 4% | LPS-induced neutrophil accumulation, effect in words (Balb/c mice; mice): dose dependent inhibition | IC50 (TNFα; COPD patients, LPS): 17 nM | Emax at 0.1 µg/mL (TNFα; read-out: TNFα E max, sputum macrophage): 86% | cigarette smoke induced CXCL1 (KC) production in BALF, effect in words (CXCL1 (KC)): inhibited | IC50 (IL-8 [1]; COPD patients, LPS): 68 nM | Emax at 0.1 µg/mL (IL-8 [1]; read-out: IL-8 E max, sputum macrophage): 64%

Cc1ccc(-n2nc(C(C)(C)C)cc2NC(=O)Nc2ccc(Oc3ccnc(Nc4cccc(O)c4)n3)c3ccccc23)cc1 [Example 2, 1-(3-(tert-Butyl)-1-(p-tolyl)-1H-pyrazol-5-yl)-3-(4-((2-((3-hydroxyphenyl)amino)pyrimidin-4-yl)oxy)naphthalen-1-yl)urea]
IC50 (IL-8 [2]): 2.7 nM
